Reference: patent publication US11149011B2, “Compounds and methods for IDO and TDO modulation, and indications therefor” (Plexxikon Inc., priority 2018, dated 2021)

What was measured:
IDO1 = target: T1, IDO1 (Homo sapiens, UniProt P14902); assay: IDO enzymatic assay; format: biochemical; conditions: geometric mean; read-out: IDO1 GMean: IC50 (μM) (Biochemical Assay)
T1 construct: His tag (N); made in house; host or cells: E. coli
Protocol: (§1) Human IDO or TDO with N-terminal His tag is purified in E. coli. The IDO enzymatic assay is performed using 6 nM IDO and 10 μM L-Trp in the presence of 10 mM ascorbic acid, 5 μM methylene blue, 100 nM catalase and 0.01% Tween 20 in 50 mM sodium phosphate buffer (pH 6.5). 19 μL of above reaction mixture is added to wells of 384 well reaction plate containing 1 μL of various concentrations of test compound or DMSO vehicle and incubated for 20 minutes at room temperature. The TDO enzymatic reaction assay is performed using 1 nM TDO and 350 μM L-Trp in the presence of 10 mM ascorbic acid, 0.4 μM methylene blue, 100 nM catalase and 0.01% Tween 20 in 50 mM sodium phosphate buffer (pH 6.5). 19 μL of above reaction mixture is added to wells of 384 well reaction plate containing 1 μL of various concentrations of test compound or DMSO vehicle and incubated for 70 minutes at room temperature. 16 wells containing all the components of reaction mixture and 5% DMSO serve as high control. 16 well containing all the components except enzyme of reaction mixture and 5% DMSO serves as low control. Both IDO and TDO enzymatic reactions are stopped by addition of 4 μL of 30% TCA and incubated 30 minutes at 50° C. to hydrolyze N-formylkynurenine produced by IDO or TDO to kynurenine. Upon measuring the kynurenine level, the percentage inhibition is calculated at individual concentrations relative to high and low controls. The data is analyzed by using nonlinear regression to generate IC50 values.

TDO = target: T2, TDO (Homo sapiens, UniProt P48775); assay: TDO enzymatic assay; conditions: geometric mean; read-out: TDO GMean: IC50 (μM) (Biochemical Assay)
T2 construct: His tag (N); made in house; host or cells: E. coli
Protocol: as §1

[1] = target: T3, IDO1-expressing HEK293 cell clones (Homo sapiens, UniProt P14902); assay: Cell based kynurenine assay, IDO1-expressing HEK293 cell clones; conditions: HEK293 cells, 24 hours of incubation, geometric mean; read-out: HEK293 IDO1 Kynurenine GMean IC50 (μM) (Cellular Assay)
T3 construct: expressed in transfected cells; host or cells: HEK293
Protocol: (§2) IDO1-expressing or TDO-expressing HEK293 cell clones are generated upon stable transfection of plasmids expressing human IDO or human TDO under the control of CMV promoter. Cells are selected in DMEM media supplemented with 10% fetal bovine serum and 1 mg/ml G418 at 37° C. in a humidified incubator supplied with 5% CO2. The assays are performed as follows.
(§3) Cells were seeded in a 96 well plate in 50 μL of culture media at a density of 2.5×10^4 per well. Serial dilutions of compounds (in total volume of 50 μL culture media) are added into cells. 4 wells containing 0.2% DMSO treated cells serve as high controls and 4 wells containing media only with 0.2% DMSO serve as low controls. After 24 hours of incubation, the supernatant was transferred to a 384 well reaction plate and the kynurenine level determined. The percentage inhibition at individual concentrations relative to high and low controls is calculated. The data is analyzed by using nonlinear regression to generate IC50 values.

[2] = target: T4, TDO-expressing HEK293 cell clones (Homo sapiens, UniProt P48775); assay: Cell based kynurenine assay, TDO-expressing HEK293 cell clones; conditions: HEK293 cells, 24 hours of incubation, geometric mean; read-out: HEK293 TDO Kynurenine GMean IC50 (μM) (Cellular Assay)
T4 construct: expressed in transfected cells; host or cells: HEK293
Protocol: as §2, §3

T1 sequence (P14902 whole entry): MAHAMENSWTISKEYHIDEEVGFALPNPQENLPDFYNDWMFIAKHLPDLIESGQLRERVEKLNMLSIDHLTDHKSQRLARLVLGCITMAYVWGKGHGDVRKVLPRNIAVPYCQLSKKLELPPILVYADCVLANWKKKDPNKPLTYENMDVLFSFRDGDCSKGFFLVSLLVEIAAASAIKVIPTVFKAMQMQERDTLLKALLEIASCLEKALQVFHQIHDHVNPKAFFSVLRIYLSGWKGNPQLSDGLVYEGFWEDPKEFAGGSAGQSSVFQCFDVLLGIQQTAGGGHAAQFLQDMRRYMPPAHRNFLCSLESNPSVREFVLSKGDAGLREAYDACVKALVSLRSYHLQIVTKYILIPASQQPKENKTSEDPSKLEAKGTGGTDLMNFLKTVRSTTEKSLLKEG
T3 sequence (P14902 whole entry): as above
T4 sequence (P48775 whole entry): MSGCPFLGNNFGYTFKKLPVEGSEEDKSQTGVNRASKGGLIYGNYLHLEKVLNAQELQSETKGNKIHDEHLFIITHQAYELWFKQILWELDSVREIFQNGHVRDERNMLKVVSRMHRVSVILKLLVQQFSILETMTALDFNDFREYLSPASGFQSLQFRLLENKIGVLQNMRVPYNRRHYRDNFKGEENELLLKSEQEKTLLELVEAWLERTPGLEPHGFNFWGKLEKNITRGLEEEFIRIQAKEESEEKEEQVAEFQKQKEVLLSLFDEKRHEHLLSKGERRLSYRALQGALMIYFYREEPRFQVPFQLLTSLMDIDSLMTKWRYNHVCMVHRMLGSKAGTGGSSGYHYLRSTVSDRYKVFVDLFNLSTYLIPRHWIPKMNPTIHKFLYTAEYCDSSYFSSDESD
T2 sequence (P48775 whole entry): as above

Compound | IC50 (IDO1) [µM] | IC50 (TDO) [µM] | IC50 [1] [µM] | IC50 [2] [µM]
CC(C)(C1CCN(C(=O)Nc2ccc(F)cc2F)CC1)C(O)c1cc(Cl)cc2[nH]ncc12 (stereo not drawn) [Compound P-0082, 4-(1-(6-chloro-1H-indazol-4-yl)-1-hydroxy-2-methylpropan-2-yl)-N-(2,4-difluorophenyl)piperidine-1-carboxamide] | 0.0001 to 10 | 0.0001 to 10 | > 10 | 0.0001 to 10
COCC(=O)N1CCC(C(C)(C)C(O)c2cc(Cl)cc3[nH]ncc23)CC1 (stereo not drawn) [Compound P-0049, 1-(4-(1-(6-chloro-1H-indazol-4-yl)-1-hydroxy-2-methylpropan-2-yl)piperidin-1-yl)-2-methoxyethan-1-one] | 0.0001 to 10 | 0.0001 to 10 | 0.0001 to 10 | 0.0001 to 10
CCCC(=O)N1CCC(C(C)(C)C(O)c2cc(Cl)cc3[nH]ncc23)CC1 (stereo not drawn) [Compound P-0045, 1-(4-(1-(6-chloro-1H-indazol-4-yl)-1-hydroxy-2-methylpropan-2-yl)piperidin-1-yl)butan-1-one] | 0.0001 to 10 | 0.0001 to 10 | 0.0001 to 10 | 0.0001 to 10
CC(C)(C1CCN(C(=O)NCc2ccc(C#N)nc2)CC1)C(O)c1cc(Cl)cc2[nH]ncc12 (stereo not drawn) [Compound P-0116, 4-(1-(6-chloro-1H-indazol-4-yl)-1-hydroxy-2-methylpropan-2-yl)-N-((6-cyanopyridin-3-yl)methyl)piperidine-1-carboxamide] | 0.0001 to 10 | 0.0001 to 10 | 0.0001 to 10 | 0.0001 to 10
COCCONC(=O)N1CCC(C(C)(C)[C@H](O)c2cc(Cl)cc3cn[nH]c23)CC1 [Compound P-0062, (S)-4-(1-(5-chloro-1H-indazol-7-yl)-1-hydroxy-2-methylpropan-2-yl)-N-(2-methoxyethoxy)piperidine-1-carboxamide] | 0.0001 to 10 | 0.0001 to 10 | 0.0001 to 10 | 0.0001 to 10
O=C(NCC1CC1)N1CCC(C(F)(F)C(=O)c2c(F)c(Cl)cc3cn[nH]c23)CC1 [Compound P-0036, 4-(2-(5-chloro-6-fluoro-1H-indazol-7-yl)-1,1-difluoro-2-oxoethyl)-N-(cyclopropylmethyl)piperidine-1-carboxamide] | 0.0001 to 10 | 0.0001 to 10 | 0.0001 to 10 | 0.0001 to 10
CC(C)(C1CCN(C(=O)Nc2ccc(C#N)nc2)CC1)[C@H](O)c1cc(Cl)cc2cn[nH]c12 [Compound P-0120, (S)-4-(1-(5-chloro-1H-indazol-7-yl)-1-hydroxy-2-methylpropan-2-yl)-N-(6-cyanopyridin-3-yl)piperidine-1-carboxamide] | 0.0001 to 10 | 0.0001 to 10 | 0.0001 to 10 | 0.0001 to 10
O=C(NCCC(F)(F)F)N1CCC(C(F)(F)C(=O)c2c(F)c(Cl)cc3cn[nH]c23)CC1 [Compound P-0039, 4-(2-(5-chloro-6-fluoro-1H-indazol-7-yl)-1,1-difluoro-2-oxoethyl)-N-(3,3,3-trifluoropropyl)piperidine-1-carboxamide] | 0.0001 to 10 | 0.0001 to 10 | 0.0001 to 10 | 0.0001 to 10
N#CCCCNC(=O)N1CCC(C(F)(F)C(=O)c2c(F)c(Cl)cc3cn[nH]c23)CC1 [Compound P-0042, 4-(2-(5-chloro-6-fluoro-1H-indazol-7-yl)-1,1-difluoro-2-oxoethyl)-N-(3-cyanopropyl)piperidine-1-carboxamide] | 0.0001 to 10 | 0.0001 to 10 | 0.0001 to 10 | 0.0001 to 10
CC(C)(C1CCN(C(=O)NCC2COC2)CC1)[C@H](O)c1cc(Cl)cc2cn[nH]c12 [Compound P-0023, (S)-4-(1-(5-chloro-1H-indazol-7-yl)-1-hydroxy-2-methylpropan-2-yl)-N-(oxetan-3-ylmethyl)piperidine-1-carboxamide] | 0.0001 to 10 | 0.0001 to 10 | 0.0001 to 10 | 0.0001 to 10
OC1(c2cc(Cl)cc3cn[nH]c23)CC(C2CC2)(C2CC2)C1 [Compound P-0108, 1-(5-chloro-1H-indazol-7-yl)-3,3-dicyclopropylcyclobutan-1-ol] | 0.0001 to 10 | 0.0001 to 10 | 0.0001 to 10 | 0.0001 to 10
CC(C)(C1CCN(C(=O)c2ccc(C(F)(F)F)nc2)CC1)C(O)c1cc(Cl)cc2[nH]ncc12 (stereo not drawn) [Compound P-0053, (4-(1-(6-chloro-1H-indazol-4-yl)-1-hydroxy-2-methylpropan-2-yl)piperidin-1-yl)(6-(trifluoromethyl)pyridin-3-yl)methanone] | 0.0001 to 10 | 0.0001 to 10 | 0.0001 to 10 | 0.0001 to 10
CC(C)(C1CCN(C(=O)NCc2ccc(F)cn2)CC1)C(O)c1cc(Cl)cc2[nH]ncc12 (stereo not drawn) [Compound P-0117, 4-(1-(6-chloro-1H-indazol-4-yl)-1-hydroxy-2-methylpropan-2-yl)-N-((5-fluoropyridin-2-yl)methyl)piperidine-1-carboxamide] | 0.0001 to 10 | 0.0001 to 10 | 0.0001 to 10 | 0.0001 to 10
CC(C)(C1CCN(C(=O)NOCc2ccccc2)CC1)[C@H](O)c1cc(Cl)cc2cn[nH]c12 [Compound P-0123, (S)-N-(benzyloxy)-4-(1-(5-chloro-1H-indazol-7-yl)-1-hydroxy-2-methylpropan-2-yl)piperidine-1-carboxamide] | 0.0001 to 10 | 0.0001 to 10 | 0.0001 to 10 | 0.0001 to 10

The remaining lines, values ahead:

IC50 (IDO1) [µM] | IC50 (TDO) [µM] | IC50 [1] [µM] | IC50 [2] [µM] | Compound
0.0001 to 10 | 0.0001 to 10 | 0.0001 to 10 | 0.0001 to 10 | CNCC(=O)N1CCC(C(C)(C)[C@H](O)c2cc(Cl)cc3cn[nH]c23)CC1 [Compound P-0128, (S)-1-(4-(1-(5-chloro-1H-indazol-7-yl)-1-hydroxy-2-methylpropan-2-yl)piperidin-1-yl)-2-(methylamino)ethan-1-one]
0.0001 to 10 | 0.0001 to 10 | 0.0001 to 10 | 0.0001 to 10 | CON(C)C(=O)N1CCC(C(C)(C)[C@H](O)c2cc(Cl)cc3cn[nH]c23)CC1 [Compound P-0130, (S)-4-(1-(5-chloro-1H-indazol-7-yl)-1-hydroxy-2-methylpropan-2-yl)-N-methoxy-N-methylpiperidine-1-carboxamide]
0.0001 to 10 | 0.0001 to 10 | 0.0001 to 10 | 0.0001 to 10 | C[C@@H](N)C(=O)N1CCC(C(C)(C)[C@H](O)c2cc(Cl)cc3cn[nH]c23)CC1 [Compound P-0125, (R)-2-amino-1-(4-((S)-1-(5-chloro-1H-indazol-7-yl)-1-hydroxy-2-methylpropan-2-yl)piperidin-1-yl)propan-1-one]
0.0001 to 10 | 0.0001 to 10 | 0.0001 to 10 | 0.0001 to 10 | C[C@@H](O)C(=O)N1CCC(C(C)(C)[C@H](O)c2cc(Cl)cc3cn[nH]c23)CC1 [Compound P-0131, (R)-1-(4-((S)-1-(5-chloro-1H-indazol-7-yl)-1-hydroxy-2-methylpropan-2-yl)piperidin-1-yl)-2-hydroxypropan-1-one]
0.0001 to 10 | 0.0001 to 10 | 0.0001 to 10 | 0.0001 to 10 | CC(C)(C1CCN(C(=O)NOCC2CC2)CC1)[C@H](O)c1cc(Cl)cc2cn[nH]c12 [Compound P-0600, (S)-4-(1-(5-chloro-1H-indazol-7-yl)-1-hydroxy-2-methylpropan-2-yl)-N-(cyclopropylmethoxy)piperidine-1-carboxamide]
0.0001 to 10 | 0.0001 to 10 | 0.0001 to 10 | 0.0001 to 10 | CS(=O)(=O)N1CCC2(CC1)CC(O)(c1c(F)c(Cl)cc3cn[nH]c13)C2 [Compound P-0136, 2-(5-chloro-6-fluoro-1H-indazol-7-yl)-7-(methylsulfonyl)-7-azaspiro[3.5]nonan-2-ol]
0.0001 to 10 | 0.0001 to 10 | > 10 | 0.0001 to 10 | CC(C)(C1CCN(C(=O)CO)CC1)[C@@H](O)c1cc(Cl)cc2[nH]ncc12 [Compound P-0146, (R)-1-(4-(1-(6-chloro-1H-indazol-4-yl)-1-hydroxy-2-methylpropan-2-yl)piperidin-1-yl)-2-hydroxyethan-1-one]
